Laboratory results reported in US6737383B1, “Herbicidal oxadiazolidines” (priority 1999, dated 2004).

Tests used:
[1] = test system: bedstraw; experiment: Test B pre/postemergence bedstraw; assay type: in vivo, Galium aparine; conditions: Postemergence
How it was run: (§1)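 Test chemicals in a non-phytotoxic solvent mixture with surfactant were sprayed preemergence onto planted seeds and postemergence onto plants 2 to 18 cm tall (1- to 4-leaf stage). After twelve to sixteen days in a greenhouse, injury was visually rated against untreated controls from 0 (no effect) to 10 (complete control).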

[2] = test system: surinam grass; experiment: Test B pre/postemergence surinam grass; assay type: in vivo, Brachiaria decumbens; conditions: for B. signalgrass plant response rating: scale of 0 to 10 where 0 is no effect and 10 is complete control
How it was run: as §1

[3] = test system: cocklebur; experiment: Test B pre/postemergence cocklebur; assay type: in vivo, Xanthium strumarium; conditions: for Cocklebur plant response rating: scale of 0 to 10 where 0 is no effect and 10 is complete control
How it was run: as §1

[4] = test system: corn; experiment: Test B pre/postemergence corn; assay type: in vivo, Zea mays; conditions: for Corn plant response rating: scale of 0 to 10 where 0 is no effect and 10 is complete control
How it was run: as §1

[5] = test system: giant foxtail; experiment: Test B pre/postemergence giant foxtail; assay type: in vivo, Setaria faberii; conditions: for Giant foxtail plant response rating: scale of 0 to 10 where 0 is no effect and 10 is complete control
How it was run: as §1

[6] = test system: pigweed; experiment: Test B pre/postemergence pigweed; assay type: in vivo, Amaranthus retroflexus; conditions: for Redroot pigweed plant response rating: scale of 0 to 10 where 0 is no effect and 10 is complete control
How it was run: as §1

[7] = test system: rape; experiment: Test B pre/postemergence rape; assay type: in vivo, Brassica napus; conditions: for Rape plant response rating: scale of 0 to 10 where 0 is no effect and 10 is complete control
How it was run: as §1

[8] = test system: soybean; experiment: Test B pre/postemergence soybean; assay type: in vivo, Glycine max; conditions: for Soybean plant response rating: scale of 0 to 10 where 0 is no effect and 10 is complete control
How it was run: as §1

[9] = test system: sugar beet; experiment: Test B pre/postemergence sugar beet; assay type: in vivo, Beta vulgaris; conditions: for Sugarbeets plant response rating: scale of 0 to 10 where 0 is no effect and 10 is complete control
How it was run: as §1

[10] = test system: velvetleaf; experiment: Test B pre/postemergence velvetleaf; assay type: in vivo, Abutilon theophrasti; conditions: for Velvetleaf plant response rating: scale of 0 to 10 where 0 is no effect and 10 is complete control
How it was run: as §1

[11] = test system: wheat; experiment: Test B pre/postemergence wheat; assay type: in vivo, Triticum aestivum; conditions: for Wheat plant response rating: scale of 0 to 10 where 0 is no effect and 10 is complete control
How it was run: as §1

[12] = test system: wild oat; experiment: Test B pre/postemergence wild oat; assay type: in vivo, Avena fatua; conditions: for Wild oats plant response rating: scale of 0 to 10 where 0 is no effect and 10 is complete control
How it was run: as §1

[13] = test system: purple nutsedge; experiment: Test B pre/postemergence purple nutsedge; assay type: in vivo, Cyperus rotundus; conditions: for Nutsedge plant response rating: scale of 0 to 10 where 0 is no effect and 10 is complete control
How it was run: as §1

[14] = test system: rice; experiment: Test B flood test rice; assay type: in vivo, Oryza sativa
How it was run: (§2)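 Flood test on plants grown to the 2-leaf stage; treated plants kept in greenhouse twelve to sixteen days, then visually rated against controls on a 0 (no effect) to 10 (complete control) scale.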

[15] = test system: smallflower flatsedge; experiment: Test B flood test smallflower flatsedge; assay type: in vivo, Cyperus difformis
How it was run: as §2

[16] = test system: duck salad; experiment: Test B flood test duck salad; assay type: in vivo, Heteranthera limosa
How it was run: as §2

[17] = Postemergence, Rate 125 g/ha, scale 0 to 10, 0 is no effect, 10 is complete control
[18] = Postemergence, Rate 250 g/ha, scale 0 to 10, 0 is no effect, 10 is complete control
[19] = Preemergence, Rate 62 g/ha, scale 0 to 10 (0 no effect, 10 complete control)
[20] = Rate 500 g/ha, Postemergence, scale 0 to 10, 0 no effect, 10 complete control
[21] = Postemergence (flood test), Rate 125 g/ha, scale 0 to 10, 0 is no effect, 10 is complete control
[22] = Rate 62 g/ha, Postemergence (flood test species), scale of 0 to 10 where 0 is no effect and 10 is complete control
[23] = Rate 500 g/ha, listed under Postemergence (flood test species), scale 0 to 10, 0 no effect, 10 complete control
[24] = flood test species, listed under Postemergence, Rate 250 g/ha, scale 0 to 10, 0 is no effect, 10 is complete control

With `CC(C)N(C(=O)n1oc(=O)n(C2(C)CC2)c1=O)c1ccccc1` [Compound 360] the “Plant response rating, Bedstraw” value ([1]; Rate 125 g/ha, scale 0 to 10, 0 is no effect, 10 is complete control) was 0, the “Plant response rating, Bedstraw” value ([1]; Rate 250 g/ha, scale 0 to 10, 0 is no effect, 10 is complete control) was 2 and the “Bedstraw plant response rating” value ([1]; Rate 62 g/ha, scale of 0 to 10 where 0 is no effect and 10 is complete control) was 0. The “Plant response rating, Bedstraw” value ([1]; Rate 500 g/ha, scale 0 to 10, 0 no effect, 10 complete control) was 4, the “Plant response rating, B. signalgrass” value [2, 17] was 0 and the “Plant response rating, B. signalgrass” value [2, 18] was 5. The “Plant response rating, B. signalgrass” value [2, 19] was 5, the “B. signalgrass plant response rating (0 to 10 scale, 0 is no effect, 10 is complete control)” value ([2]; Preemergence, Rate 125 g/ha) was 6 and the “B. signalgrass plant response rating” value ([2]; Preemergence, Rate 250 g/ha) was 7. For the same compound, the “B. signalgrass plant response rating” value ([2]; Preemergence, Rate 500 g/ha) was 7, the “B. signalgrass plant response rating” value ([2]; Rate 62 g/ha, Postemergence) was 0 and the “Plant response rating, B. signalgrass” value [2, 20] was 7. For the same compound, the “Plant response rating, Cocklebur” value [3, 17] was 0, the “Plant response rating, Cocklebur” value [3, 18] was 0 and the “Plant response rating, Cocklebur” value [3, 19] was 0. The “Cocklebur plant response rating (0 to 10 scale)” value ([3]; Preemergence, Rate 125 g/ha) was 0, the “Cocklebur plant response rating” value ([3]; Preemergence, Rate 500 g/ha) was 0 and the “Cocklebur plant response rating” value ([3]; Rate 62 g/ha, Postemergence) was 0. The “Plant response rating, Cocklebur” value [3, 20] was 0, the “Plant response rating, Corn” value [4, 17] was 2 and the “Plant response rating, Corn” value [4, 18] was 6. For the same compound, the “Plant response rating, Corn” value [4, 19] was 0, the “Corn plant response rating (0 to 10 scale)” value ([4]; Preemergence, Rate 125 g/ha) was 3 and the “Corn plant response rating” value ([4]; Preemergence, Rate 250 g/ha) was 4. For the same compound, the “Corn plant response rating” value ([4]; Preemergence, Rate 500 g/ha) was 9, the “Corn plant response rating” value ([4]; Rate 62 g/ha, Postemergence) was 2 and the “Plant response rating, Corn” value [4, 20] was 7. For the same compound, the “Plant response rating, Giant foxtail” value [5, 17] was 8, the “Plant response rating, Giant foxtail” value [5, 18] was 8 and the “Plant response rating, Giant foxtail” value [5, 19] was 10. The “Giant foxtail plant response rating (0 to 10 scale)” value ([5]; Preemergence, Rate 125 g/ha) was 10, the “Giant foxtail plant response rating” value ([5]; Preemergence, Rate 250 g/ha) was 10 and the “Giant foxtail plant response rating” value ([5]; Preemergence, Rate 500 g/ha) was 10. For the same compound, the “Giant foxtail plant response rating” value ([5]; Rate 62 g/ha, Postemergence) was 8, the “Plant response rating, Giant foxtail” value [5, 20] was 8 and the “Plant response rating, Redroot pigweed” value [6, 17] was 0. The “Plant response rating, Redroot pigweed” value [6, 18] was 3, the “Plant response rating, Redroot pigweed” value [6, 19] was 5 and the “Redroot pigweed plant response rating (0 to 10 scale)” value ([6]; Preemergence, Rate 125 g/ha) was 5. For the same compound, the “Redroot pigweed plant response rating” value ([6]; Preemergence, Rate 250 g/ha) was 10, the “Redroot pigweed plant response rating” value ([6]; Preemergence, Rate 500 g/ha) was 10 and the “Redroot pigweed plant response rating” value ([6]; Rate 62 g/ha, Postemergence) was 0. The “Plant response rating, Redroot pigweed” value [6, 20] was 6, the “Plant response rating, Rape” value [7, 17] was 0 and the “Plant response rating, Rape” value [7, 18] was 0. The “Plant response rating, Rape” value [7, 19] was 0, the “Rape plant response rating (0 to 10 scale)” value ([7]; Preemergence, Rate 125 g/ha) was 0 and the “Rape plant response rating” value ([7]; Preemergence, Rate 250 g/ha) was 0. For the same compound, the “Rape plant response rating” value ([7]; Preemergence, Rate 500 g/ha) was 0, the “Rape plant response rating” value ([7]; Rate 62 g/ha, Postemergence) was 0 and the “Plant response rating, Rape” value [7, 20] was 0. The “Plant response rating, Soybean” value [8, 17] was 2, the “Plant response rating, Soybean” value [8, 18] was 2 and the “Plant response rating, Soybean” value [8, 19] was 0. The “Soybean plant response rating (0 to 10 scale)” value ([8]; Preemergence, Rate 125 g/ha) was 0, the “Soybean plant response rating” value ([8]; Preemergence, Rate 250 g/ha) was 0 and the “Soybean plant response rating” value ([8]; Preemergence, Rate 500 g/ha) was 5. The “Soybean plant response rating” value ([8]; Rate 62 g/ha, Postemergence) was 1, the “Plant response rating, Soybean” value [8, 20] was 3 and the “Plant response rating, Sugarbeets” value [9, 17] was 0. For the same compound, the “Plant response rating, Sugarbeets” value [9, 18] was 2, the “Plant response rating, Sugarbeets” value [9, 19] was 2 and the “Sugarbeets plant response rating (0 to 10 scale)” value ([9]; Preemergence, Rate 125 g/ha) was 6. The “Sugarbeets plant response rating” value ([9]; Preemergence, Rate 250 g/ha) was 6, the “Sugarbeets plant response rating” value ([9]; Preemergence, Rate 500 g/ha) was 7 and the “Sugarbeets plant response rating” value ([9]; Rate 62 g/ha, Postemergence) was 0. For the same compound, the “Plant response rating, Sugarbeets” value [9, 20] was 7, the “Plant response rating, Velvetleaf” value [10, 17] was 0 and the “Plant response rating, Velvetleaf” value [10, 18] was 0. The “Plant response rating, Velvetleaf” value [10, 19] was 3, the “Velvetleaf plant response rating (0 to 10 scale)” value ([10]; Preemergence, Rate 125 g/ha) was 6 and the “Velvetleaf plant response rating” value ([10]; Preemergence, Rate 250 g/ha) was 7. The “Velvetleaf plant response rating” value ([10]; Preemergence, Rate 500 g/ha) was 7, the “Velvetleaf plant response rating” value ([10]; Rate 62 g/ha, Postemergence) was 0 and the “Plant response rating, Velvetleaf” value [10, 20] was 4. For the same compound, the “Plant response rating, Wheat” value [11, 17] was 4, the “Plant response rating, Wheat” value [11, 18] was 4 and the “Plant response rating, Wheat” value [11, 19] was 3. The “Wheat plant response rating (0 to 10 scale)” value ([11]; Preemergence, Rate 125 g/ha) was 6, the “Wheat plant response rating” value ([11]; Preemergence, Rate 250 g/ha) was 7 and the “Wheat plant response rating” value ([11]; Preemergence, Rate 500 g/ha) was 8. The “Wheat plant response rating” value ([11]; Rate 62 g/ha, Postemergence) was 3, the “Plant response rating, Wheat” value [11, 20] was 6 and the “Plant response rating, Wild oats” value [12, 17] was 3. The “Plant response rating, Wild oats” value [12, 18] was 3, the “Plant response rating, Wild oats” value [12, 19] was 3 and the “Wild oats plant response rating (0 to 10 scale)” value ([12]; Preemergence, Rate 125 g/ha) was 10. The “Wild oats plant response rating” value ([12]; Preemergence, Rate 250 g/ha) was 10, the “Wild oats plant response rating” value ([12]; Preemergence, Rate 500 g/ha) was 10 and the “Wild oats plant response rating” value ([12]; Rate 62 g/ha, Postemergence) was 3. For the same compound, the “Plant response rating, Wild oats” value [12, 20] was 5, the “Plant response rating, Nutsedge” value [13, 17] was 0 and the “Plant response rating, Nutsedge” value [13, 18] was 2. The “Plant response rating, Nutsedge” value [13, 19] was 0, the “Nutsedge plant response rating (0 to 10 scale)” value ([13]; Preemergence, Rate 125 g/ha) was 0 and the “Nutsedge plant response rating” value ([13]; Preemergence, Rate 250 g/ha) was 0. For the same compound, the “Nutsedge plant response rating” value ([13]; Preemergence, Rate 500 g/ha) was 7, the “Nutsedge plant response rating” value ([13]; Rate 62 g/ha, Postemergence) was 0 and the “Plant response rating, Nutsedge” value [13, 20] was 4. The “Plant response rating, Rice” value [14, 21] was 0, the “Rice plant response rating” value [14, 22] was 0 and the “Plant response rating, Rice” value [14, 23] was 3. The “Plant response rating, Rice” value [14, 24] was 3, the “Plant response rating, S. Flatsedge” value [15, 21] was 4 and the “S. Flatsedge plant response rating” value [15, 22] was 2. The “Plant response rating, S. Flatsedge” value [15, 23] was 8, the “Plant response rating, S. Flatsedge” value [15, 24] was 4 and the “Plant response rating, Ducksalad” value [16, 21] was 0. For the same compound, the “Ducksalad plant response rating” value [16, 22] was 0, the “Plant response rating, Ducksalad” value [16, 23] was 0 and the “Plant response rating, Ducksalad” value [16, 24] was 0.
